Format in all cases: functional, cell-based
One assay deals with K562. Put plainly: Antiproliferative activity against human K562 cells by MTT assay. (Tetrazolium assays rely on reduction of a dye to a coloured formazan, in cell work by metabolically active cells.)
Assay [1] can be described thus: Antiproliferative activity against human SPC-A1 cells by MTT assay. The settings on record: SPCA1.
The test system of a further assay is A549. Nature of the assay: Antiproliferative activity against human A549 cells by MTT assay.
Assay [2] relates to A2780. Nature of the assay: Antiproliferative activity against cisplatin-resistant human A2780 cells by MTT assay.
The subject of assay [3] is A2780. Put plainly: Antiproliferative activity against cisplatin-sensitive human A2780 cells by MTT assay.

With `C=CCc1cc(/C=N/Nc2ccccc2)c(O)c(-c2ccc(O)c(CC=C)c2)c1`, the IC50 (in the assay on K562; in assay [1]; with A549) was above 104 µM throughout.

Take `C=CCc1cc(-c2ccc(O)c(CC=C)c2)c2oncc2c1`: the IC50 came out at 78.4 µM in the assay on K562, 77.3 µM in assay [1] and 65.6 µM in the assay with A549.

Take `C=CCc1cc(/C=N/C2CCCCC2)c(O)c(-c2ccc(O)c(CC=C)c2)c1`: the IC50 in the assay with K562 is 90.7 µM; in assay [1] it was 88 µM; in the assay with A549 it was 93.3 µM.

On to `C=CCc1cc(/C=N\O)c(O)c(-c2ccc(O)c(CC=C)c2)c1`, for which the IC50 is 20.7 µM with K562; 45 µM in assay [1]; 37.2 µM in the assay on A2780 [2]; 33 µM in the assay with A2780 [3]; 40.4 µM with A549.

Turning to `C=CCc1ccc(O)c(-c2cc(/C=N/O)c(O)c(CC=C)c2)c1`, the IC50 in the assay on K562 is 24.9 µM; in assay [1], 53.1 µM; with A549, 39.5 µM.

On to `C=CCc1ccc(O)c(-c2cc(/C=C3\SC(=O)NC3=O)c(O)c(CC=C)c2)c1`, for which the half-inhibitory concentration (IC50) was 81.4 µM in the assay on K562, above 102 µM in assay [1] and above 102 µM in the assay with A549.

Consider `C=CCc1ccc(O)c(-c2cc(/C=C(\C#N)C(=O)OCC)c(O)c(CC=C)c2)c1`, for which the IC50 in the assay with K562 came to 47.6 µM; in assay [1] it was 62 µM; in the assay with A549 it was 57.6 µM.

Regarding `C=CCc1cc(/C=N\O)c(O)c(-c2cc(/C=N/O)c(O)c(CC=C)c2)c1`, the IC50 in the assay with K562 came out at 21.5 µM; in assay [1], 43.8 µM; in the assay with A2780 [2] it was 29.3 µM; in the assay on A2780 [3] it was 20.2 µM; in the assay on A549 it was 32.4 µM.

Turning to `C=CCc1cc(/C=C2\SC(=O)NC2=O)c(O)c(-c2cc(/C=C3\SC(=O)NC3=O)c(O)c(CC=C)c2)c1`, the IC50 (with K562; in assay [1]; in the assay with A549) was above 76.9 µM throughout.

For the molecule `C=CCc1cc(/C=N/CCCCCC)c(O)c(-c2ccc(O)c(CC=C)c2)c1`, the IC50 (in the assay on K562; in assay [1]; in the assay with A549) was above 106 µM throughout.

As for `C=CCc1cc(/C=C(\C#N)C(=O)OCC)c(O)c(-c2ccc(O)c(CC=C)c2)c1`, the IC50 came to 95.1 µM in the assay with K562, 92.5 µM in assay [1] and 87.4 µM in the assay with A549.

Take `C=CCc1cc(/C=N/c2ccccc2)c(O)c(-c2ccc(O)c(CC=C)c2)c1`: the IC50 came to 32.2 µM with K562, 40.7 µM in assay [1] and 39.8 µM with A549.

`C=CCc1cc(C=O)c(O)c(-c2cc(C=O)c(O)c(CC=C)c2)c1`: the 50% inhibitory concentration (IC50) with K562 turned out to be 36 µM; in assay [1] it was 45.3 µM; in the assay on A549 it was 55 µM.

`C=CCc1cc(C=O)c(O)c(-c2ccc(O)c(CC=C)c2)c1`: the IC50 in the assay on K562 turned out to be 38.8 µM; in assay [1], 38.4 µM; with A549 it was 41.8 µM.

For the molecule `C=CCc1cc(/C=N/CCN)c(O)c(-c2ccc(O)c(CC=C)c2)c1`, the IC50 with K562 came to 42.6 µM; in assay [1], 50.3 µM; with A549, 41.1 µM.

As to `C=CCc1cc(/C=C2\SC(=O)NC2=O)c(O)c(-c2ccc(O)c(CC=C)c2)c1`, the figures for the IC50 (in the assay on K562; in assay [1]; in the assay with A549) were 91.6 µM, above 102 µM and 91.6 µM, respectively.

In the case of `C=CCc1ccc(O)c(-c2cc(C=O)c(O)c(CC=C)c2)c1`, the IC50 with K562 was determined as 11.9 µM; in assay [1] it was 25.5 µM; in the assay with A2780 [2], 22.4 µM; with A2780 [3], 16.7 µM; with A549, 41.8 µM.

In the case of `C=CCc1ccc(O)c(-c2ccc(O)c(CC=C)c2)c1` [HONOKIOL], the IC50 in the assay on K562 stood at 21.1 µM; in assay [1], 36.1 µM; in the assay with A2780 [2], 41.2 µM; in the assay on A2780 [3], 30.5 µM; in the assay with A549, 35 µM.

The term IC50 denotes the midpoint of a concentration-inhibition curve.

For the origin of these results see ChEMBL document CHEMBL1153073, “Semi-synthesis and anti-proliferative activity evaluation of novel analogues of Honokiol” (Bioorg Med Chem Lett, 2009).
